Columns and labels:
[1] = system: patients with chronic atrial fibrillation; assay: PETRO phase 2 12-week dose finding study; type: in vivo, human; conditions: 12 weeks
Source text: Primary endpoints were bleeding events and changes in D-dimer. […] Minor bleeding was dose related.

[2] = system: patients with atrial fibrillation at risk of stroke; assay: RELY Clinical Trial, dabigatran 110 mg or 150 mg twice daily versus warfarin; type: in vivo
Source text: The primary study outcome was stroke or systemic embolism. The primary safety outcome was major hemorrhage. Secondary outcomes were stroke, systemic embolism and death. […] All other bleeding was considered minor.
All analyses were based on intention-to-treat.

[3] = system: activated partial thromboplastin time (aPTT), ecarin clotting time, and thrombin clotting time; assay: Coagulation tests
[4] = system: patients with atrial fibrillation
Procedure: PETRO-Ex began while the PETRO study was ongoing and investigators were initially kept blinded to patient treatment group until PETRO was completed. Unblinding investigators to patient treatment was possible thereafter.
Data were summarized descriptively; no hypothesis was to be tested. Events were analyzed on the basis of the treatment at onset. Incidences were reported as number of patients with events as well as normalized to 100 patient-years on the respective treatment.
Written, informed consent was obtained from all patients.
Patients who completed PETRO on 50 mg b.i.d. were switched to 150 mg q.d. upon entry in the PETRO-Ex study (N=93 patients). […] Patients who were down titrated to 50 mg q.d. based on a glomerular filtration rate ≦50 mL/min during PETRO were excluded from the long-term trial; patients down-titrated in other dose levels remained on the q.d. treatment at that dose.
The total exposure reflects both trials, PETRO and PETRO-Ex, together.

[5] = of the 16 on treatment cases with AST or ALT >3×ULN

SMILES: [H]/N=C(/N)c1ccc(NCc2nc3cc(C(=O)N(CCC(=O)O)c4ccccn4)ccc3n2C)cc1 [dabigatran]
- Change in D-dimer levels [1]: comparable to warfarin
- Rate of hemorrhagic stroke ([2]; 110 mg b.i.d.): 0.12 % per year
- Rate of net benefit-risk outcome (major vascular events, major bleeding and death) ([2]; 110 mg b.i.d.): 7.37 % per year
- Stroke, systemic embolism, pulmonary embolism, myocardial infarction death or major bleed (net benefit), Rate ([2]; 110 mg b.i.d.): 7.37 /100 Person Years
- First Hospitalization, RR ([2]; 110 mg vs. Warfarin): 0.92
- Non-disabling Stroke Modified Rankin 0-2, RR ([2]; 110 mg vs. Warfarin): 0.87
- Stroke or systemic embolism, RR ([2]; 110 mg vs. Warfarin): 0.91
- Stroke, Hemorrhagic, RR ([2]; 110 mg vs. Warfarin): 0.31
- Stroke, RR ([2]; 110 mg vs. Warfarin): 0.92
- Stroke, systemic embolism, pulmonary embolism, myocardial infarction death or major bleed (net benefit), RR ([2]; 110 mg vs. Warfarin): 0.92
- Rate of hemorrhagic stroke ([2]; 150 mg b.i.d.): 0.10 % per year
- Rate of net benefit-risk outcome (major vascular events, major bleeding and death) ([2]; 150 mg b.i.d.): 7.22 % per year
- Stroke, systemic embolism, pulmonary embolism, myocardial infarction death or major bleed (net benefit), Rate ([2]; 150 mg b.i.d.): 7.22 /100 Person Years
- Stroke, Ischemic or Unspecified, RR ([2]; 150 mg vs. 110 mg): 0.68
- Stroke, RR ([2]; 150 mg vs. 110 mg): 0.70
- Stroke, systemic embolism, pulmonary embolism, myocardial infarction death or major bleed (net benefit), RR ([2]; 150 mg vs. 110 mg): 0.98
- First Hospitalization, RR ([2]; 150 mg vs. Warfarin): 0.97
- Non-disabling Stroke Modified Rankin 0-2, RR ([2]; 150 mg vs. Warfarin): 0.62
- Stroke or systemic embolism, RR ([2]; 150 mg vs. Warfarin): 0.66
- Stroke, Hemorrhagic, RR ([2]; 150 mg vs. Warfarin): 0.26
- Stroke, Ischemic or Unspecified, RR ([2]; 150 mg vs. Warfarin): 0.76
- Stroke, RR ([2]; 150 mg vs. Warfarin): 0.64
- Stroke, systemic embolism, pulmonary embolism, myocardial infarction death or major bleed (net benefit), RR ([2]; 150 mg vs. Warfarin): 0.90
- Prolongation of aPTT, ecarin clotting time, and thrombin clotting time [3]: dose dependent prolongation
- Fatal bleeding events, rate ([4]; all doses): 0.5 % per year
- LFT abnormality resolved after stopping, number of cases [4, 5]: 5
- LFT abnormality resolved with continuation, number of cases [4, 5]: 10
- Cases with an explanatory clinical diagnosis, number ([4]; of the 18 cases with AST or ALT >3×ULN): 9
